Measurements as given in patent US4874752A, “Benzoquinone derivatives and production thereof” (Takeda Chemical Industries, Ltd., priority 1982, dated 1989).
Where a name gives a salt, the structure may show the parent alone.

Molecular target: T1, protocollagen-proline hydroxylase (Gallus gallus, UniProt P16924)
T1 construct: partially purified enzyme preparation obtained from chick embryos; from tissue; host or cells: chick embryos (partially purified enzyme)
T1 sequence (P16924 1-516): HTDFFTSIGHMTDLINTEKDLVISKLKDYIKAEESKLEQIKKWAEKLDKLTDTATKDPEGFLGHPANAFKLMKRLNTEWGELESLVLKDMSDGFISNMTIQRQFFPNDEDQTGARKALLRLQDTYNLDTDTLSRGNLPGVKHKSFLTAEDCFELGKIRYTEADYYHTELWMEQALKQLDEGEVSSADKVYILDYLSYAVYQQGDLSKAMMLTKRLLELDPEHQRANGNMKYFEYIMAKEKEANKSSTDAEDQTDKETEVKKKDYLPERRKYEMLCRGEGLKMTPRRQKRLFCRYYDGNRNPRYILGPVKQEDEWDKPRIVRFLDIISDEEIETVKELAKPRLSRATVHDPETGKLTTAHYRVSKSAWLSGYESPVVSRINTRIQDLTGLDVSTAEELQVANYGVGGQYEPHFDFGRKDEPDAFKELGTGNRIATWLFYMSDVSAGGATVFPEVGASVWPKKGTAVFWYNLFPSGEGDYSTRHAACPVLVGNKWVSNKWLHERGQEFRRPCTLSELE
T1 sequence (P09102 23-515 partner): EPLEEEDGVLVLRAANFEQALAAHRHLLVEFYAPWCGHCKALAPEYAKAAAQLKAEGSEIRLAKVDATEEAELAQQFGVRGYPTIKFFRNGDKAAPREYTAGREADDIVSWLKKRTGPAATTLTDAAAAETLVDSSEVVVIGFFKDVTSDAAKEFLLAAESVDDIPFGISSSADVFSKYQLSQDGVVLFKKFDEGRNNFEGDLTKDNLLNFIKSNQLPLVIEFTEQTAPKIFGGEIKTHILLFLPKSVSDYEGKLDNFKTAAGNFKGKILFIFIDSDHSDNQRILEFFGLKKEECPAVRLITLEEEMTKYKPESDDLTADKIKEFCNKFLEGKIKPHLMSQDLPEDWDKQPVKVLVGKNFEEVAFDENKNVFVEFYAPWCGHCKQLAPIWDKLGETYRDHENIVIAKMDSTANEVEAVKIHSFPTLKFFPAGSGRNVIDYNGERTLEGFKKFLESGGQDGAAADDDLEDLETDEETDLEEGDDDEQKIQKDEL
Test: Inhibitory activity of protocollagen-proline hydroxylase
Assay type: biochemical, chick embryos
Conditions: for inhibition at 10 µM / Inhibition of protocollagen-proline hydroxylase: 10 μM
Description: Determination of this inhibitory activity was made by the method of R. E. Rhoads et al. [Methods in Enzymology XVII B, 306 (1971)] using a partially purified enzyme preparation obtained from chick embryos in accordance with the methods of K. I. Kivirriko et al. and J. Halme et al. [J. Biol, Chem. 242, 4007 (1967) and Biochim. Biophys. Acta 198, 460 (1967)] and, as a substrate, (Pro-Pro-Gly)5.4H2 O[prepared by the Protein Research Foundation, Osaka]. In this procedure, the partially purified enzyme was used in an amount of 100 μg as protein.

Structure (SMILES) | inhibition at 20 µM [%] | inhibition at 10 µM [%] | inhibition at 50 µM [%] | other results
COC1=C(OC)C(=O)C(CCC(=O)N[C@@H](Cc2ccc(O)cc2)C(=O)O)=C(C)C1=O [m:0, n:2, Z:COTyr, 3-(2,3-dimethoxy-5-methyl-1,4-benzoquinon-6-yl)propionyl-L-tyrosine] | 35 | – | – | –
COC(=O)/C=C/C=C/C=C/C=C/C1=C(C)C(=O)C(OC)=C(OC)C1=O | 67 | 38 | 76 | –
COC1=C(OC)C(=O)C(CCCCCCCCCC(=O)N[C@@H](CCCCN)C(=O)O)=C(C)C1=O [m:0, n:9, Z:COLys, 10-(2,3-dimethoxy-5-methyl-1,4-benzoquinon-6-yl)decanoyl-L-lysine] | 25 | – | – | –
COC1=C(OC)C(=O)C(CCCCCCCCCC(=O)N[C@@H](Cc2c[nH]c3ccccc23)C(=O)O)=C(C)C1=O [m:0, n:9, Z:COTrp, 10-(2,3-dimethoxy-5-methyl-1,4-benzoquinon-6-yl)decanoyl-L-tryptophan] | 15 | – | – | –
COC1=C(OC)C(=O)C(COc2ccc(C(C)C(=O)O)cc2)=C(C)C1=O (stereo not drawn) | 100 | 100 | 100 | inhibition at 2.5 µM: 70%; inhibition at 5 µM: 75%; Inhibition of protocollagen-proline hydroxylase: 92%
COC1=C(OC)C(=O)C(CCOc2ccc(/C=C/C(=O)O)cc2)=C(C)C1=O | 100 | 99.9 | 100 | inhibition at 2.5 µM: 62%; inhibition at 5 µM: 72%
COC1=C(OC)C(=O)C(CC=C(C)COc2ccc(CC(=O)O)cc2)=C(C)C1=O [drawing 20] | 48 | 34 | 92 | –
COC1=C(OC)C(=O)C(CCC(=O)N[C@@H](CCCNC(=N)N)C(=O)O)=C(C)C1=O [m:0, n:2, Z:COArg (salt of acetic acid), 3-(2,3-dimethoxy-5-methyl-1,4-benzoquinon-6-yl)propionyl-L-arginine] | 56 | – | – | –
COC1=C(OC)C(=O)C(CCC(=O)NCC(=O)O)=C(C)C1=O [m:0, n:2, Z:COGly, 3-(2,3-dimethoxy-5-methyl-1,4-benzoquinone-6-yl)propionyl-glycine] | 46 | – | – | –
COC1=C(OC)C(=O)C(CCOc2ccc(CC(=O)O)cc2)=C(C)C1=O | 100 | 100 | 100 | inhibition at 2.5 µM: 64%; inhibition at 5 µM: 74%; Inhibition of protocollagen-proline hydroxylase: 82%
COC1=C(OC)C(=O)C(CCCCCCCCCC(=O)OC[C@H]2OC(O)[C@H](NC(C)=O)[C@@H](O[C@H](C)C(=O)O)[C@@H]2O)=C(C)C1=O (stereo partly drawn) [m:0, n:9, Z:COMurNAc, N-acetyl-6O-[10-(2,3-dimethoxy-5-methyl-1,4-benzoquinon-6-yl)decanoyl]muraminic acid] | 32 | – | – | –
COC1=C(OC)C(=O)C(c2nc3cc(C(C)C(=O)O)ccc3o2)=C(C)C1=O (stereo not drawn) | 76 | 54 | 84 | –
COC1=C(OC)C(=O)C(CCC(=O)N[C@@H](CCC(=O)O)C(=O)O)=C(C)C1=O [m:0, n:2, Z:COGlu, 3-(2,3-dimethoxy-5-methylbenzoquinon-6-yl)propionyl-L-glutamic acid] | 20 | – | – | –
COC1=C(OC)C(=O)C(CCC(=O)N[C@@H](C)C(=O)O)=C(C)C1=O [m:0, n:2, Z:CoAla, 3-(2,3-dimethoxy-5-methyl-1,4-benzoquinon-6-yl)propionyl-L-alanine] | 32 | – | – | –
COC1=C(OC)C(=O)C(CCCCCCCCCC(=O)NC(CCC(=O)O)C(=O)O)=C(C)C1=O (stereo not drawn) [m:0, n:9, Z:COGlu] | 37 | – | – | –
COC1=C(OC)C(=O)C(CCCCCCCCCCN2CCOCC2)=C(C)C1=O | – | – | – | inhibition at 25 µM (25 μM): 30%
COC1=C(OC)C(=O)C(CCCCCCCCCC(=O)N[C@@H](CCSC)C(=O)O)=C(C)C1=O [m:0, n:9, Z:COMet, 10-(2,3-dimethoxy-5-methyl-1,4-benzoquinon-6-yl)decanoyl-L-methionine] | 38 | – | – | –
COC1=C(OC)C(=O)C(CCCCCCCCCC(=O)N[C@@H](Cc2c[nH]cn2)C(=O)O)=C(C)C1=O [m:0, n:9, Z:COHis, 10-(2,3-dimethoxy-5-methyl-1,4-benzoquinon-6-yl)decanoyl-L-histidine] | 52 | – | – | –
COC1=C(OC)C(=O)C(CN2CCOCC2)=C(C)C1=O | 78 | – | – | –
COC1=C(OC)C(=O)C(/C=C/C(C)=O)=C(C)C1=O [drawing 26] | 92 | 85 | 92 | inhibition at 2.5 µM: 51%; inhibition at 5 µM: 72%
COC1=C(OC)C(=O)C(CCCCCCCCCC(=O)N[C@@H](CCCNC(=N)N)C(=O)O)=C(C)C1=O [m:0, n:9, Z:COArg (salt of acetic acid), 10-(2,3-dimethoxy-5-methyl-1,4-benzoquinon-6-yl)decanoyl-L-arginine] | 52 | – | – | –
COC1=C(OC)C(=O)C(CCC(=O)N2CCC[C@H]2C(=O)O)=C(C)C1=O [m:0, n:2, Z:COPro, 3-(2,3-dimethoxy-5-methyl-1,4-benzoquinon-6-yl)propionyl-L-proline] | 35 | – | – | –
COC1=C(OC)C(=O)C(CCCCCCCCCC(=O)N[C@H](Cc2ccccc2)C(=O)O)=C(C)C1=O [m:0, n:9, Z:COPhe, 10-(2,3-dimethoxy-5-methyl-1,4-benzoquinon-6-yl)decanoyl-D-phenylalanine] | 35 | – | – | –
COC1=C(OC)C(=O)C(/C=C/C(=O)O)=C(C)C1=O [drawing 25] | 46 | 37 | 68 | inhibition at 2.5 µM: 0%; inhibition at 5 µM: 22%
COC1=C(OC)C(=O)C(CCCCCCCCCC(=O)N[C@H]2C(O)O[C@H](CO)[C@@H](O)[C@@H]2O)=C(C)C1=O (stereo partly drawn) [m:0, n:9, Z:COGlcN, N-[10-(2,3-dimethoxy-5-methyl-1,4-benzoquinon-6-yl)decanoyl]glucosamine] | 52 | – | – | –
COC1=C(OC)C(=O)C(CCCCCCCCCC(=O)N2CSCC2C(=O)O)=C(C)C1=O (stereo not drawn) | 35 | – | – | –
